Source: the supplement of paper PMC4862054

These compounds were tested on HCC1937 (assay: normalised response (% of control), CellTox Green; higher = less cell death (100 = DMSO, 0 = benzethonium chloride kill control)). Settings: incubation time: 72 h.
Procedure, shortened: (§1)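 Breast cancer cell lines in 20 µl suspension were added to 384-well plates containing compound at 5 concentrations, spaced in 10-fold steps across a 10,000-fold range chosen for each compound, and incubated for 72 h. CellTox Green fluorescence was read at 485/520 nm, followed by CellTiter-Glo luminescence after 10 min at room temperature. Signals on each plate were normalised so that 0.1 % DMSO equals 100 and a positive kill control equals 0. Every value in the table is the normalised signal at one concentration of the series.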
CCN(CC)CCNC(=O)c1c(C)[nH]c(/C=C2\C(=O)Nc3ccc(F)cc32)c1C [Sunitinib] (1000 nM) showed a normalised response of 93.9%.
With CC[C@@]1(O)C(=O)OCc2c1cc1n(c2=O)Cc2cc3c(CN(C)C)c(O)ccc3nc2-1 [Topotecan] (100 nM) the normalised response was 52.5%.

What follows are compounds tested on HDQ-P1 in the same assay as above. Settings: incubation time: 72 h.
Procedure, shortened: as §1
Compound COc1ccc(-c2cc3c(C)nc(N)nc3n([C@H]3CC[C@H](OCCO)CC3)c2=O)cn1 (1000 nM) has a normalised response of 84.7%.
Compound COc1ccc(-c2cc3c(C)nc(N)nc3n([C@H]3CC[C@H](OCCO)CC3)c2=O)cn1 (10000 nM) has a normalised response of -2.73%.
In the case of O=C(Nc1c[nH]nc1-c1nc2ccc(CN3CCOCC3)cc2[nH]1)NC1CC1 [AT9283] (1000 nM), the normalised response is reported as 88.2%.
COc1cc(CCc2cc(NC(=O)c3ccc(N4CC(C)NC(C)C4)cc3)n[nH]2)cc(OC)c1 (stereo unspecified) [AZD4547] (100 nM) gave a normalised response of 89.4%.
CO[C@@H](C(=O)N1Cc2[nH]nc(NC(=O)c3ccc(N4CCN(C)CC4)cc3)c2C1)c1ccccc1 [Danusertib] (1000 nM) showed a normalised response of 105%.
For Cc1nc(Nc2ncc(C(=O)Nc3c(C)cccc3Cl)s2)cc(N2CCN(CCO)CC2)n1 [Dasatinib] (100 nM), the normalised response was 90.2%.
Cc1nc(Nc2ncc(C(=O)Nc3c(C)cccc3Cl)s2)cc(N2CCN(CCO)CC2)n1 [Dasatinib] (1000 nM) was tested, and the normalised response was 81.3%.
In the case of Cc1c(CN2CCN(C(=O)[C@H](C)O)CC2)sc2c(N3CCOCC3)nc(-c3cnc(N)nc3)nc12 [GDC-0980] (1000 nM), the normalised response is reported as 103%.
In the case of Cc1c(CN2CCN(C(=O)[C@H](C)O)CC2)sc2c(N3CCOCC3)nc(-c3cnc(N)nc3)nc12 [GDC-0980] (10000 nM), the normalised response is reported as 41.6%.
With C[C@]12O[C@H](C[C@]1(O)CO)n1c3ccccc3c3c4c(c5c6ccccc6n2c5c31)CNC4=O [Lestaurtinib] (100 nM) the normalised response was 105%.
For C[C@]12O[C@H](C[C@]1(O)CO)n1c3ccccc3c3c4c(c5c6ccccc6n2c5c31)CNC4=O [Lestaurtinib] (1000 nM), the normalised response was 76.4%.
For O=C1c2c(O)ccc(O)c2C(=O)c2c(NCCNCCO)ccc(NCCNCCO)c21 [Mitoxantrone] (100 nM), the normalised response was 101%.
Work on O=C1c2c(O)ccc(O)c2C(=O)c2c(NCCNCCO)ccc(NCCNCCO)c21 [Mitoxantrone] (1000 nM) yielded a normalised response of 98.8%.
Nc1ccccc1NC(=O)c1ccc(CNc2nccc(-c3cccnc3)n2)cc1 [Mocetinostat] (10000 nM) showed a normalised response of -1.8%.
COc1nc(N)nc2c1ncn2[C@@H]1O[C@H](CO)[C@@H](O)[C@@H]1O [Nelarabine] (10000 nM) showed a normalised response of 111%.
For Cc1ccc(Nc2nccc(N(C)c3ccc4c(C)n(C)nc4c3)n2)cc1S(N)(=O)=O [Pazopanib] (1000 nM), the normalised response was 94.3%.
Cc1ccc(Nc2nccc(N(C)c3ccc4c(C)n(C)nc4c3)n2)cc1S(N)(=O)=O [Pazopanib] (10000 nM) was tested, and the normalised response was 111%.
C[C@]12C=CC(=O)C=C1CC[C@@H]1[C@@H]2[C@@H](O)C[C@@]2(C)[C@H]1CC[C@]2(O)C(=O)CO [Prednisolone] (10000 nM) showed a normalised response of 57.2%.
For CNC(=O)c1cc(Oc2ccc(NC(=O)Nc3ccc(Cl)c(C(F)(F)F)c3)cc2)ccn1 [Sorafenib] (100 nM), the normalised response was 67.2%.
With CNC(=O)c1cc(Oc2ccc(NC(=O)Nc3ccc(Cl)c(C(F)(F)F)c3)cc2)ccn1 [Sorafenib] (1000 nM) the normalised response was 103%.
For CCN(CC)CCNC(=O)c1c(C)[nH]c(/C=C2\C(=O)Nc3ccc(F)cc32)c1C [Sunitinib] (100 nM), the normalised response was 76.8%.
CCN(CC)CCNC(=O)c1c(C)[nH]c(/C=C2\C(=O)Nc3ccc(F)cc32)c1C [Sunitinib] (1000 nM) was tested, and the normalised response was 101%.
Work on CC[C@@]1(O)C(=O)OCc2c1cc1n(c2=O)Cc2cc3c(CN(C)C)c(O)ccc3nc2-1 [Topotecan] (100 nM) yielded a normalised response of 103%.

These compounds were tested on MCF-10A in the same assay as above. Settings: incubation time: 72 h.
Procedure, shortened: as §1
With COc1ccc(-c2cc3c(C)nc(N)nc3n([C@H]3CC[C@H](OCCO)CC3)c2=O)cn1 (1000 nM) the normalised response was 93.2%.
With COc1ccc(-c2cc3c(C)nc(N)nc3n([C@H]3CC[C@H](OCCO)CC3)c2=O)cn1 (10000 nM) the normalised response was 72.4%.
O=C(Nc1c[nH]nc1-c1nc2ccc(CN3CCOCC3)cc2[nH]1)NC1CC1 [AT9283] (1000 nM) showed a normalised response of 88.4%.
COc1cc(CCc2cc(NC(=O)c3ccc(N4CC(C)NC(C)C4)cc3)n[nH]2)cc(OC)c1 (stereo unspecified) [AZD4547] (100 nM) gave a normalised response of 105%.
CO[C@@H](C(=O)N1Cc2[nH]nc(NC(=O)c3ccc(N4CCN(C)CC4)cc3)c2C1)c1ccccc1 [Danusertib] (1000 nM) showed a normalised response of 110%.
With Cc1nc(Nc2ncc(C(=O)Nc3c(C)cccc3Cl)s2)cc(N2CCN(CCO)CC2)n1 [Dasatinib] (100 nM) the normalised response was 112%.
Compound Cc1nc(Nc2ncc(C(=O)Nc3c(C)cccc3Cl)s2)cc(N2CCN(CCO)CC2)n1 [Dasatinib] (1000 nM) has a normalised response of 63%.
Cc1c(CN2CCN(C(=O)[C@H](C)O)CC2)sc2c(N3CCOCC3)nc(-c3cnc(N)nc3)nc12 [GDC-0980] (1000 nM) showed a normalised response of 100%.
In the case of Cc1c(CN2CCN(C(=O)[C@H](C)O)CC2)sc2c(N3CCOCC3)nc(-c3cnc(N)nc3)nc12 [GDC-0980] (10000 nM), the normalised response is reported as 88.3%.
Compound C[C@]12O[C@H](C[C@]1(O)CO)n1c3ccccc3c3c4c(c5c6ccccc6n2c5c31)CNC4=O [Lestaurtinib] (100 nM) has a normalised response of 107%.
C[C@]12O[C@H](C[C@]1(O)CO)n1c3ccccc3c3c4c(c5c6ccccc6n2c5c31)CNC4=O [Lestaurtinib] (1000 nM) showed a normalised response of 66%.
Work on O=C1c2c(O)ccc(O)c2C(=O)c2c(NCCNCCO)ccc(NCCNCCO)c21 [Mitoxantrone] (100 nM) yielded a normalised response of 113%.
For O=C1c2c(O)ccc(O)c2C(=O)c2c(NCCNCCO)ccc(NCCNCCO)c21 [Mitoxantrone] (1000 nM), the normalised response was 112%.
Nc1ccccc1NC(=O)c1ccc(CNc2nccc(-c3cccnc3)n2)cc1 [Mocetinostat] (10000 nM) was tested, and the normalised response was 84%.
COc1nc(N)nc2c1ncn2[C@@H]1O[C@H](CO)[C@@H](O)[C@@H]1O [Nelarabine] (10000 nM) showed a normalised response of 83.2%.
In the case of Cc1ccc(Nc2nccc(N(C)c3ccc4c(C)n(C)nc4c3)n2)cc1S(N)(=O)=O [Pazopanib] (1000 nM), the normalised response is reported as 77%.
For Cc1ccc(Nc2nccc(N(C)c3ccc4c(C)n(C)nc4c3)n2)cc1S(N)(=O)=O [Pazopanib] (10000 nM), the normalised response was 94.8%.
In the case of C[C@]12C=CC(=O)C=C1CC[C@@H]1[C@@H]2[C@@H](O)C[C@@]2(C)[C@H]1CC[C@]2(O)C(=O)CO [Prednisolone] (10000 nM), the normalised response is reported as 100%.
Compound CNC(=O)c1cc(Oc2ccc(NC(=O)Nc3ccc(Cl)c(C(F)(F)F)c3)cc2)ccn1 [Sorafenib] (100 nM) has a normalised response of 99.8%.
CNC(=O)c1cc(Oc2ccc(NC(=O)Nc3ccc(Cl)c(C(F)(F)F)c3)cc2)ccn1 [Sorafenib] (1000 nM) showed a normalised response of 89%.
For CCN(CC)CCNC(=O)c1c(C)[nH]c(/C=C2\C(=O)Nc3ccc(F)cc32)c1C [Sunitinib] (100 nM), the normalised response was 108%.
